{
  "source": "paper PMC9056950",
  "about": "“Synthesis and biochemical evaluation of cephalosporin analogues equipped with chemical tethers” (RSC Advances, 2020)",
  "key": {"S. aureus": {"tested_on": "T1, S. aureus", "T1 construct": "NCTC 6571", "design": "species or system Staphylococcus aureus NCTC 6571; broth growth inhibition, OD600, fitted MIC from dose curve, TSB, 37 C", "conditions": "16 h; inhibitor", "experimental": "Stock solutions of each compound were prepared in 50% DMSO/water at ×100 the final concentration. In a 96-well plate, 2 μL of the test compounds were added to each well. Each plate included the positive control (750 μg mL^−1 chloramphenicol), the negative control (50% DMSO/water) and media only wells. To each test well was then added 198 μL of the required bacteria stock (OD 0.05). E. coli assays were carried out using LB broth, S. aureus were carried out using tryptic soy broth (TSB). Plates were incubated at 37 °C and the OD600 was measured (Epoch 2 Microplate Spectrophotometer, BioTek) every 30 min over a 17 h period. Tests were carried out in triplicate, the background absorbance was removed using reference wells, and the averages were determined. Dose curves were plotting using the OD600 after 16 h growth vs. compound concentration. MICs were defined as the minimum concentration of compound at which no significant growth was observed after 16 h incubation. MIC values were determined using GraphPad Prism (version 8.3.0). The activity of 1–12 was investigated with growth assays against Staphylococcus aureus (NCTC 6571). S. aureus is a virulent Gram-positive pathogen that can cause a wide range of infections in humans.[29,30] Each compound was tested at 400–6 μM concentrations, with lower concentrations tested as required."}, "PBP4": {"molecular_target": "T2, PBP4 (Bacillus subtilis, UniProt P32959)", "T2 sequence (P32959 1-451)": "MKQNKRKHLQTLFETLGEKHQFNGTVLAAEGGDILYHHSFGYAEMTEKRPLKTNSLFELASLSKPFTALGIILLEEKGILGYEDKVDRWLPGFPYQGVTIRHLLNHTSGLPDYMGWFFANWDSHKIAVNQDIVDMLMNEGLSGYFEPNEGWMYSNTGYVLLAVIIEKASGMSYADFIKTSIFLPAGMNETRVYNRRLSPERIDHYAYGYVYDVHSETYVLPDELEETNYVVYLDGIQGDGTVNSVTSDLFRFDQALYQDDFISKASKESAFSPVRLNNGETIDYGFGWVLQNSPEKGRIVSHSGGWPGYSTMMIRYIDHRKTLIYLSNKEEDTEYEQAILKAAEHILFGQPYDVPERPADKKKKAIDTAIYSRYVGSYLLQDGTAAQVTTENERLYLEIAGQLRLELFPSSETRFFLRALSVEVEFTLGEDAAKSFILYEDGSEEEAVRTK", "assay": "biochemical", "design": "gene pbpE; commercial protein from Generon; fluorescent dye thermal shift assay, 500 nM PBP4 with 50 uM compound, delta Tm", "conditions": "read-out: Average DTm/°C", "experimental": "The thermal shift assay was carried out using the Protein Thermal Shift™ assay kit (Applied Biosystems). 3 μM of purified E. coli PBP3 was incubated with the β-lactam analogues at 300 μM concentration in a mixture containing the Protein Thermal Shift™ Dye. The samples were then heated in a StepOnePlus™ Real-Time PCR System from 25 to 95 °C at a rate of 1 °C min^−1. Tests were carried out in triplicate and the averages plotted as the negative first derivative vs. temperature. Reference wells, i.e. solutions consisting only of only PBP3 with dye, PBP3 only, and dye only, were used as controls. Melting temperature (Tm) values were determined with and without each compound, and the change in melting temperature (ΔTm) was obtained, Fig. 2. The thermal shift assay with PBP4 was carried out using the protocol described for PBP3, with the follow deriviatisation: 500 nM of purified Bacillus subtilis PBP4 was incubated with 50 μM of the β-lactam analogues. A thermal shift assay was used to investigate the binding of the cephalexin analogues to the therapeutic target, PBP, in vitro. This assay provides a fast and inexpensive method of detecting a ligand binding to a protein of interest. Briefly, the protein is gradually heated in the presence of a fluorescent dye that binds non-specifically to the hydrophobic surfaces. […] A change in the melting temperature (Tm) when the protein is heated in the presence of a ligand, indicates a protein–ligand interaction. […] The PBPs can be divided into two main categories: high molecular mass (HMM) and low molecular mass (LMM).[13] PBP3 was chosen as a representative HMM PBP, and PBP4 as a representative LMM PBP. Cephalexin (1) has been previously reported to show good binding affinities for both PBP3 and PBP4.[14] Penicillin (11) and cefpodoxime (12) were included as positive controls. AmpC (Uniprot ID: P00811) was purchased from Abcam plc (Cambridge, UK). PBP4 (Uniprot ID: P32959) was purchased from Generon (Slough, UK)."}, "E. coli (BW25113)": {"tested_on": "T3, E. coli (BW25113)", "T3 construct": "BW25113", "assay": "microbe, parasite or virus in culture", "design": "minimum bactericidal concentration 50 on agar plates", "conditions": "Escherichia coli, read-out: MBC50 E. coli (BW25113)"}},
  "data": [
    {"compound": "CC1=C(C(=O)O)N2C(=O)[C@@H](NC(=O)[C@H](NC(=O)COCC(=O)NCCOCCOCCOCCOCCNC(=O)CCCCCN3C(=O)C=CC3=O)c3ccccc3)[C@H]2SC1", "note": "[compound 2, (6R,7R)-7-((R)-30-(2,5-Dioxo-2,5-dihydro-1H-pyrrol-1-yl)-4,8,25-trioxo-2-phenyl-6,12,15,18,21-pentaoxa-3,9,24-triazatriacontanamido)-3-methyl-8-oxo-5-thia-1-azabicyclo[4.2.0]oct-2-ene-2-carboxylic acid]", "values": [
      {"measurement": "MIC (S. aureus, best-fit)", "setting": "S. aureus", "result": "9.255e-05", "unit": "M"},
      {"measurement": "ΔTm at 50 µM", "setting": "PBP4", "result": -1.95, "unit": "°C"},
      {"measurement": "MBC", "setting": "E. coli (BW25113)", "result": "> 400", "unit": "µM"}
    ]},
    {"compound": "CC1=C(C(=O)O)N2C(=O)[C@@H](NC(=O)[C@H](NC(=O)OC(C)(C)C)c3ccccc3)[C@H]2SC1", "note": "[compound 9, (6R,7R)-7-[(2R)-2-{[(Tert-butoxy)carbonyl]amino}-2-phenylacetamido]-3-methyl-8-oxo-5-thia-1-azabicyclo[4.2.0]oct-2-ene-2-carboxylic acid]", "values": [
      {"measurement": "MIC (S. aureus, best-fit)", "setting": "S. aureus", "result": "1.097e-05", "unit": "M"},
      {"measurement": "ΔTm at 50 µM", "setting": "PBP4", "result": -0.809, "unit": "°C"},
      {"measurement": "MBC", "setting": "E. coli (BW25113)", "result": "> 400", "unit": "µM"}
    ]},
    {"compound": "CC1=C(C(=O)O)N2C(=O)[C@@H](NC(=O)[C@H](NC(=O)CCCC(=O)O)c3ccccc3)[C@H]2SC1", "note": "[compound 7, (6R,7R)-7-[(2R)-2-(4-Carboxybutanamido)-2-phenylacetamido]-3-methyl-8-oxo-5-thia-1-azabicyclo[4.2.0]oct-2-ene-2-carboxylic acid]", "values": [
      {"measurement": "MIC (S. aureus, best-fit)", "setting": "S. aureus", "result": "8.144e-05", "unit": "M"},
      {"measurement": "ΔTm at 50 µM", "setting": "PBP4", "result": -0.422, "unit": "°C"},
      {"measurement": "MBC", "setting": "E. coli (BW25113)", "result": "> 400", "unit": "µM"}
    ]},
    {"compound": "CC1=C(C(=O)O)N2C(=O)[C@@H](NC(=O)[C@H](NC(=O)CCCCC3CCSS3)c3ccccc3)[C@H]2SC1", "note": "(stereo partly drawn) [compound 5, (6R,7R)-7-[(2R)-2-[5-(1,2-Dithiolan-3-yl)pentanamido]-2-phenylacetamido]-3-methyl-8-oxo-5-thia-1-azabicyclo[4.2.0]oct-2-ene-2-carboxylic acid]", "values": [
      {"measurement": "MIC (S. aureus, best-fit)", "setting": "S. aureus", "result": "2.493e-05", "unit": "M"},
      {"measurement": "ΔTm at 50 µM", "setting": "PBP4", "result": -0.464, "unit": "°C"},
      {"measurement": "MBC", "setting": "E. coli (BW25113)", "result": "> 400", "unit": "µM"}
    ]},
    {"compound": "CC(=O)N[C@@H](C(=O)N[C@@H]1C(=O)N2C(C(=O)O)=C(C)CS[C@H]12)c1ccccc1", "note": "[compound 8, (6R,7R)-7-[(2R)-2-Acetamido-2-phenylacetamido]-3-methyl-8-oxo-5-thia-1-azabicyclo[4.2.0]oct-2-ene-2-carboxylic acid]", "values": [
      {"measurement": "MIC (S. aureus, best-fit)", "setting": "S. aureus", "result": "~ 5.897e-005 M"},
      {"measurement": "ΔTm at 50 µM", "setting": "PBP4", "result": -0.248, "unit": "°C"},
      {"measurement": "MBC", "setting": "E. coli (BW25113)", "result": "> 400", "unit": "µM"}
    ]},
    {"compound": "C#CCCC(=O)N[C@@H](C(=O)N[C@@H]1C(=O)N2C(C(=O)O)=C(C)CS[C@H]12)c1ccccc1", "note": "[compound 4, (6R,7R)-3-Methyl-8-oxo-7-[(2R)-2-(pent-4-ynamido)-2-phenylacetamido]-5-thia-1-azabicyclo[4.2.0]oct-2-ene-2-carboxylic acid]", "values": [
      {"measurement": "MIC (S. aureus, best-fit)", "setting": "S. aureus", "result": "~ 3.501e-005 M"},
      {"measurement": "ΔTm at 50 µM", "setting": "PBP4", "result": -0.853, "unit": "°C"},
      {"measurement": "MBC", "setting": "E. coli (BW25113)", "result": "> 400", "unit": "µM"}
    ]},
    {"compound": "CC1=C(C(=O)O)N2C(=O)[C@@H](NC(=O)[C@H](NC(=O)CCCCCN3C(=O)C=CC3=O)c3ccccc3)[C@H]2SC1", "note": "[compound 3, (6R,7R)-7-((R)-2-(6-(2,5-dioxo-2,5-dihyrdo-1H-pyrrol-1-yl)hexanamido)-2-phenylacetamido)-3-methyl-8-oxo-5-thia-1-azabicyclo[4.2.0]oct-2-ene-2-carboxylic acid]", "values": [
      {"measurement": "MIC (S. aureus, best-fit)", "setting": "S. aureus", "result": "~ 5.580e-005 M"},
      {"measurement": "ΔTm at 50 µM", "setting": "PBP4", "result": -0.378, "unit": "°C"},
      {"measurement": "MBC", "setting": "E. coli (BW25113)", "result": "> 400", "unit": "µM"}
    ]},
    {"compound": "COCC1=C(C(=O)O)N2C(=O)[C@@H](NC(=O)/C(=N\\OC)c3csc(N)n3)[C@H]2SC1", "note": "[compound 12, cefpodoxime]", "values": [
      {"measurement": "MIC (S. aureus, best-fit)", "setting": "S. aureus", "result": "2.094e-05", "unit": "M"},
      {"measurement": "ΔTm at 50 µM", "setting": "PBP4", "result": -0.695, "unit": "°C"},
      {"measurement": "MBC", "setting": "E. coli (BW25113)", "result": 100, "unit": "µM"}
    ]},
    {"compound": "CC1=C(C(=O)O)N2C(=O)[C@@H](NC(=O)[C@H](NC(=O)CCCC(=O)ON3C(=O)CCC3=O)c3ccccc3)[C@H]2SC1", "note": "[compound 6, (6R,7R)-7-[(2R)-2-{5-[(2,5-Dioxopyrrolidin-1-yl)oxy]-5-oxopentanamido}-2-phenylacetamido]-3-methyl-8-oxo-5-thia-1-azabicyclo[4.2.0]oct-2-ene-2-carboxylic acid]", "values": [
      {"measurement": "MIC (S. aureus, best-fit)", "setting": "S. aureus", "result": "8.29e-05", "unit": "M"},
      {"measurement": "ΔTm at 50 µM", "setting": "PBP4", "result": -0.708, "unit": "°C"},
      {"measurement": "MBC", "setting": "E. coli (BW25113)", "result": "> 400", "unit": "µM"}
    ]},
    {"compound": "CC1=C(C(=O)O)N2C(=O)[C@@H](NC(=O)[C@H](NC(=O)CCCCN)c3ccccc3)[C@H]2SC1", "note": "[compound 10, (6R,7R)-7-[(2R)-2-(5-Aminopentanamido)-2-phenylacetamido]-3-methyl-8-oxo-5-thia-1-azabicyclo[4.2.0]oct-2-ene-2-carboxylic acid]", "values": [
      {"measurement": "MIC (S. aureus, best-fit)", "setting": "S. aureus", "result": "5.135e-05", "unit": "M"},
      {"measurement": "ΔTm at 50 µM", "setting": "PBP4", "result": -0.0272, "unit": "°C"},
      {"measurement": "MBC", "setting": "E. coli (BW25113)", "result": "> 400", "unit": "µM"}
    ]},
    {"compound": "CC1=C(C(=O)O)N2C(=O)[C@@H](NC(=O)[C@H](N)c3ccccc3)[C@H]2SC1", "note": "[compound 1, cephalexin]", "values": [
      {"measurement": "MIC (S. aureus, best-fit)", "setting": "S. aureus", "result": "1.89e-05", "unit": "M"},
      {"measurement": "ΔTm at 50 µM", "setting": "PBP4", "result": -0.882, "unit": "°C"},
      {"measurement": "MBC", "setting": "E. coli (BW25113)", "result": "> 400", "unit": "µM"}
    ]}
  ]
}
